Source: patent publication US20080213376A1, “Medicament that is Intended for Oral Administration, Comprising a Cyclooxygenase-2 Inhibitor, and Preparation Method Thereof” (VETOQUINOL, priority 2005, published 2008)
Values after ≈ are worked out from the molar mass of the structure shown.

Assay: Solubility by HPLC in approximately 0.1N HCl medium
Type: physicochemical
Details: simulated gastric fluid, thermodynamic from solid, HPLC technique
Experimental: By way of indication, the solubility S0 of the cimicoxib powder alone and the solubility S2 of the particle agglomerate according to this second example of the invention were measured by the HPLC (high performance liquid chromatography) technique and in an approximately 0.1N HCl medium, with the following results (solubilities in milligrams/liter):
By way of indication, the solubility S5 of this particle agglomerate according to this fifth example of the invention was compared to the solubility S0 of the cimicoxib powder alone by the HPLC technique and in an approximately 0.1N HCl medium, with the following results (milligrams/liter): […]

solubility: 3.1 µg/mL (≈ 8.12 µM)
SMILES: COc1ccc(-c2c(Cl)ncn2-c2ccc(S(N)(=O)=O)cc2)cc1F [cimicoxib powder alone, cimicoxib]
